≈ marks a conversion by molar mass, not a printed value.
Tests used:
Assay type in all cases: functional
Bacillus subtilis = assay: Antimicrobial activity against Bacillus subtilis
Staphylococcus aureus = assay: Antimicrobial activity against Staphylococcus aureus
Proteus sp. = assay: Antimicrobial activity against Proteus sp.; conditions: Proteus sp. (in: enterobacteria)
Enterococcus faecalis = assay: Antimicrobial activity against Enterococcus faecalis
Escherichia coli = assay: Antimicrobial activity against Escherichia coli

MIC (Bacillus subtilis) [µg/mL] | MIC (Staphylococcus aureus) [µg/mL] | MIC (Proteus sp.) [µg/mL] | MIC (Enterococcus faecalis) [µg/mL] | MIC (Escherichia coli) [µg/mL] | SMILES
12.5 (≈ 26.7 µM) | 12.5 (≈ 26.7 µM) | 12.5 (≈ 26.7 µM) | 50 (≈ 107 µM) | 12.5 (≈ 26.7 µM) | C=C(C)[C@H]1COc2c(C)cc3oc4c(C[C@H](OC=O)C(C)(C)O)ccc(O)c4c(=O)c3c2[C@@H]1O [VARIXANTHONE]
50 (≈ 123 µM) | 50 (≈ 123 µM) | – | 50 (≈ 123 µM) | 50 (≈ 123 µM) | C=C(C)[C@H]1COc2c(C)cc3oc4c(CC=C(C)C)ccc(O)c4c(=O)c3c2[C@@H]1O [SHAMIXANTHONE]
50 (≈ 324 µM) | 50 (≈ 324 µM) | – | 50 (≈ 324 µM) | 50 (≈ 324 µM) | C/C=C/C1=CC(=O)[C@@H](O)[C@@H]1O [TERREIN]

From ChEMBL document CHEMBL1148105, “Bioactive metabolites from a marine-derived strain of the fungus Emericella variecolor” (2002)
